Results published in US20200113852A1, “METHODS OF PATIENT SELECTION AND TREATING TRXR- OR PRDX-OVEREXPRESSED CANCERS” (TRIACT THERAPEUTICS, INC., priority 2017, published 2020).

Tests used:
[1] = biological target: T1, TrxR1 (Homo sapiens, UniProt Q16881); assay: Mass spectrometry of immunoprecipitated TrxR1 modified by Iniparib in HCT116 cells; format: cell-based; design: TrxR1 and TrxR2 were immunoprecipitated from octylglucoside cell extracts (12 mg proteins); endogenous in cells; host or cells: HCT116 (BSO-pretreated); settings: for TrxR1 modified on Sec residue: 100 μM, GSH-depleted HCT116
T1 sequence (Q16881 1-499 isoform Q16881-5): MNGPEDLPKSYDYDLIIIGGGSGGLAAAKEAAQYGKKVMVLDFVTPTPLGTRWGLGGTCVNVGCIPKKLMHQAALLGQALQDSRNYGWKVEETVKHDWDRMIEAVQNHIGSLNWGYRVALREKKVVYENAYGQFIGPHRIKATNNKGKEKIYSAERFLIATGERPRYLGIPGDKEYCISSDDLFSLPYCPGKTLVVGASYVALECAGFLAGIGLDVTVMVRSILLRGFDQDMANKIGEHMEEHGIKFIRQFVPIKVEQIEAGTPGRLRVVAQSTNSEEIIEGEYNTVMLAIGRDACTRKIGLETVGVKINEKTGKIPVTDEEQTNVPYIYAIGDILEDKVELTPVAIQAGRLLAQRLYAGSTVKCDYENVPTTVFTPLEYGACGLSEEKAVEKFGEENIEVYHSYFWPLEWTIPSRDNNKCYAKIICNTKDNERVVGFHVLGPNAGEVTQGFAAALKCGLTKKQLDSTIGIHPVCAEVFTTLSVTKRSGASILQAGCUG
Experimental: After separation by SDS-PAGE under reducing conditions and PageBlue® protein staining (Thermo scientific), bands of interest were excised, reduced with DTT, alkylated with iodoacetamide and in-gel digested with trypsin (Promega), according to the method of Shevchenko et al. (24). Peptides were extracted with 50 mM ammonium bicarbonate and 50% acetonitrile in 0.2% formic acid and analyzed by Nano LC-MS/MS after partial evaporation in a speed-vac concentrator. LC-MS/MS experiments were performed on an NanoAcquity UPLC (Waters) coupled to a hybrid LTQ Orbitrap Velos mass spectrometer (Thermo Fisher Scientific) equipped with a nanoelectrospray source. Tryptic digests were loaded onto a nanoAcquity UPLC Trap column (Symmetry C18, 5 μm, 180 μm×20 mm, Waters) and washed with 0.2% FA at 20 μl/min for 5 min. Peptides were then eluted on a C18 reverse-phase nanoAcquity column (BEH130 C18, 1.7 μm, 75 μm×250 mm, Waters) with a linear gradient of 7-30% solvent B (H2O/CH3CN/HCOOH, 10:90:0.2, by vol.) for 85 min, 30-90% solvent B for 10 min, and 90% solvent B for 5 min, at a flow rate of 250 nL/min. The mass spectrometer was operated in the data-dependent mode to automatically switch between MS and MS/MS acquisition. Survey full scan MS spectra (m/z 300-1,600) were acquired in the Orbitrap with a resolution of 60,000 at m/z 400. The AGC was set to 1×10^6 with a maximum injection time of 100 ms. The most intense ions (up to 20) were then isolated for fragmentation in the LTQ linear ion trap with normalized collision energy of 28% at the default activation q of 0.25 with an AGC of 5×10^3 and a maximum injection time of 200 ms. The dynamic exclusion time window was set to 80 s. LC-MS/MS data, acquired using the Xcalibur software (Thermo-Fisher Scientific), were processed using a homemade Visual Basic program software developed using XRawfile libraries (distributed by Thermo-Fisher Scientific) to generate a MS/MS peak list (MGF file) which will be used for database searching. This MGF file contained the exact parent mass and the retention time (RT) associated with each MS/MS spectrum. The exact parent mass is the 12C isotope ion mass of the most intense isotopic pattern detected on the high resolution Orbitrap MS parallel scan and included in the MS/MS selection window. The RT is issued from the LTQ-MS/MS scan. Database searches were done using our internal MASCOT server (version 2.1, matrix Science) using the SwissProt human database. […] The precursor mass tolerance was set to 5 ppm and the fragment ion tolerance was set to 0.5 Da. The number of missed cleavage sites for trypsin was set to 3. Mascot result files (“.dat” files) were imported into Scaffold software. Scaffold (version 3.4.5, Proteome software Inc., Portland, Oreg.) was used to validate MS/MS based peptide and protein identifications. Queries were also used for XTandem parallel Database Search. The compiled results of both database searches were exported.

[2] = test system: TrxR in MDA-MB-231 cells; assay: Endogenous TrxR activity (DTNB reduction assay); format: cell-based, human; settings: GSH-depleted MDA-MB-231; iniparib 100 μM, Auranofin 1 μM, up to 4 h
Source text: Initial velocities were derived from linear regression analyses and then plotted in double reciprocal plots to obtain the half time of TrxR inhibition using an one phase exponential decay analysis (Prism, GraphPad software).

[3] = test system: Trx, JNK, p38MAPK, PARP in HCT116 cells; assay: Cell death signaling western blots (Trx oxidation, phospho-JNK, phospho-p38MAPK, cleaved-PARP)
Experimental: Cells extracts were analyzed by SDS-PAGE either under reducing conditions or under non-reducing conditions in the case of Trx blot followed by blots anti-phospho-JNK, anti-phospho-p38MAPK, anti-cleaved-PARP and anti-Trx. Results are representative of three independent experiments.
After 2 h at 4° C., lysates were clarified by centrifugation and protein amounts were measured using the BCA assay (Pierce, Thermo scientific).
Equal amounts of proteins were resolved by SDS-PAGE under either non-reducing or reducing (5% 2-mercaptoethanol, 20 min at 60° C.) conditions, using 4-20% gels (Novex, Invitrogen), then subjected to semi-dry electrophoretic transfer onto nitrocellulose membranes.

[4] = biological target: T1, TrxR1; assay: In vitro Iniparib-biotin TrxR adduct formation on immunoprecipitated TrxR with or without NADPH; format: binding

SMILES | TrxR1 modified on both adjacent Cys and Sec residues ([1]; 1 h) | TrxR1 modified on Sec residue ([1]; 1 h) | 5 other TrxR1 peptides modified on Cys residues, altogether ([1]; 4 h) | TrxR1 modified on both adjacent Cys and Sec residues ([1]; 4 h) | TrxR1 modified on Sec residue ([1]; 4 h) | TrxR reductase activity [2] | JNK activation, time of occurrence ([3]; GSH-depleted HCT116, 100 μM, persisted until 24 h) | p38MAPK and JNK phosphorylation ([3]; GSH-depleted HCT116, 7 h or 24 h) | Trx oxidation ([3]; GSH-depleted HCT116, 7 h or 24 h, 100 μM Iniparib, 1 μM Auranofin, 100 nM Staurosporin) | adduct formation with TrxR1 ([4]; NADPH provided) | covalent labeling of TrxR1 ([4]; absence of NADPH)
NC(=O)c1ccc(I)c([N+](=O)[O-])c1 [Iniparib, 4-iodo-3-nitrobenzamide] | 0.8% | 50% | less than 7 % of the total protein | 4.7% | 67% | inhibition of the TrxR reductase activity | 6 h | activation of both p38MAPK and JNK phosphorylation | oligomeric/oxidized form of Trx accumulated |  | 
O=C(CCCC[C@@H]1SC[C@@H]2NC(=O)N[C@@H]21)NCCNC(=O)c1ccc(I)c([N+](=O)[O-])c1 [Iniparib-biotin, 4-iodo-3-nitro-N-(2-(5-((3 aS,4S,6aR)-2-oxohexahydro-1H-thieno[3,4-d]imidazol-4-yl)pentanamido)ethyl)benzamide] |  |  |  |  |  |  |  |  |  | able to form adducts with TrxR1 to a large extent | almost no covalent labeling
